Consider one molecule from article PMC5118774 (Frontiers in Pharmacology, 2016).

Molecules are shown by their SMILES. Entries after “also recorded” stand apart in the source; their conditions may differ.

The test system of experiment [1] is mice exposed to unpredictable chronic mild stress (UCMS). The experiment can be described thus: Novelty suppressed feeding test after UCMS. Type of experiment: in vivo, C57BL/6J mice. The source says: Mice underwent between 6 and 8 weeks of UCMS (see Supplementary Table S1 for example UCMS schedule). Animals were exposed to 2–3 mild stressors each day throughout the light/dark cycle, including wet bedding, brief restraint, forced bath, no bedding, reduced space, and predator odor over a period of several weeks (see details in Supplementary Material) ([Edgar et al., 2011]; [Lin and Sibille, 2015]). Female mice were housed 5 per cage, and male mice were housed 4 per cage in Optimice cages (Animal Care Systems Inc, Centennial, CO, USA). In experiment 3.4, UCMS was augmented with single-cage isolation housing in male mice beginning at the fourth week of UCMS until sacrifice. A timeline of experimental procedures can be found in Figure 2A (including timeline of the sections “ Drug Treatment” and “Behavioral Testing”).
At the start of the third week of UCMS and continuing for between 28 and 42 days (including time for behavioral tests, see “Behavioral Testing”) until sacrifice, mice received daily i.p injections of vehicle (85% ddH2O, 14% propylene glycol, 1% Tween 80) or 30 mg/kg SH-053-2’F-R-CH3 (α5-PAM; synthesized in the laboratory of Dr. James M. Cook) in a volume of […]. All animals received a single daily injection (chronic α5-PAM treated mice received SH-053-2’F-R-CH3, acute α5-PAM and vehicle treated animals received vehicle injections) between 8:00AM and 9:00AM until the start of behavioral testing. After 3 weeks of treatment, all mice began receiving a second injection 30 min prior to behavioral testing. All animals received a second injection of either vehicle (for chronic α5-PAM treated animals and UCMS-vehicle treated animals) or α5-PAM acutely (α5-PAM acute animals). All injections were performed using ultra-fine insulin syringes (31 gauge, 6 mm; Becton, Dickinson and Company, Franklin Lakes, NJ, USA).
After 5 weeks of UCMS, including 3 weeks of drug treatment, animals were assessed in a battery of behavioral tests (each test separated by 48 h, UCMS continued throughout behavioral testing for a period of 1–3 weeks). These tests included: Elevated plus maze: under red light, animals were placed on a plus maze with two open and two closed arms (30 cm × 5 cm). Number of entries into all arms as well as the time spent in the open arms was recorded for 10 min. Open field test: The open field test was conducted in a 43 cm ×43 cm arena under bright (800 lux) light. Using AnyMaze software (Stoelting, Wood Dale, IL, USA), the center 50% of the arena was identified and animals were tracked for 10 min. Novelty suppressed feeding test: Mice were food deprived for 24 h the day before testing. Testing occurred in brightly lit (∼1000 lux) open field arenas covered in bedding. A normal food pellet was placed into the brightly lit center and the latency for an animal to approach and bite the pellet was recorded over a 12 min session. Immediately following the session, animals were placed into their home cage and allowed to eat a weighed food pellet to assess hunger drive. Cookie test: The cookie test apparatus contains three identically sized chambers (40 cm × 20 cm × 20 cm) separated by two offset dividers. The outer walls of each chamber were clear and the only difference between each was the color of the divider, with one divider shaded white and the other black. One week prior to experimentation, mice were habituated in their home cage to a piece (2 ± 1 g) of Keebler Fudge Stripe Cookie (Kellogg’s Company, Battle Creek, MI, USA). On the first and second day of testing, a piece of cookie (2 ± 1 g) was placed into the chamber separated by the black divider. Mice were then placed into the opposing chamber separated by the white divider and monitored for 10 min. The latency for each mouse to bite the cookie was recorded. […]

Experiment [2] shares this test system. The experiment can be described thus: Open field test after UCMS. Type of experiment: in vivo, C57BL/6J mice.
Where [3] appears, read: female UCMS mice, chronic treatment, vs UCMS-vehicle, second cohort (Figure 3).
Setting [4] is: male UCMS mice, 37.5 mg/kg acute or chronic (Figure 4B), 37.5 mg/kg.
Setting [5] is: male mice, UCMS plus single housing, chronic treatment (Figure 4A).

As to `C#Cc1ccc2c(c1)C(c1ccccc1F)=N[C@H](C)c1c(C(=O)OCC)ncn1-2` [α5-PAM], the “NSF latency to bite food pellet” value in experiment [1] (female UCMS mice, acute 30 mg/kg i.p. 30 min before test, vs UCMS-vehicle, first cohort (Figure 2)) is reported as “reduced the latency to bite; also recorded: reducing latency to bite”; in experiment [1] (female UCMS mice, acute treatment, vs UCMS-vehicle, second cohort (Figure 3)), “reduces; also recorded: reduced the latency to bite”; in experiment [1] (female UCMS mice, chronic 30 mg/kg i.p., vs UCMS-vehicle, first cohort (Figure 2)), “reduced the latency to bite; also recorded: reducing latency to bite”; in experiment [1] (setting [3]) it was “reduces; also recorded: reduced the latency to bite”; in experiment [1] (male UCMS mice, acute or chronic 30 mg/kg i.p., first cohort (Figure 2)), “no effect”. Further, the “NSF, stress-induced behavior” value in experiment [1] (setting [4]) was “No change; also recorded: failed to reduce”. In addition, the “NSF, UCMS-induced behavioral phenotype” value in experiment [1] (setting [5]) is given as “did not alter; also recorded: No significant effect”. In experiment [2] (setting [3]), the “OFT percentage of total distance traveled in the center” value is listed as “increases; also recorded: higher percentage of their total distance traveled”. In addition, the OFT behavior result in experiment [2] (female and male UCMS mice, acute or chronic 30 mg/kg i.p., first cohort (Figure 2)) is “did not detect any significant main effects; also recorded: No effect”. The “OFT, stress-induced behavior” value in experiment [2] (setting [4]) was “No change; also recorded: failed to reduce”. For the same molecule, the “OFT, UCMS-induced behavioral phenotype” value in experiment [2] (setting [5]) is “did not alter; also recorded: No significant effect”.
